# Reference: ChEMBL document CHEMBL5143631, “nTZDpa (non-thiazolidinedione PPARγ partial agonist) derivatives retain antimicrobial activity without improving renal toxicity” (Bioorg Med Chem Lett, 2022)
# Tests used:
# [1] = Toxicity in renal cells (unknown origin) assessed as cell viability at 64 ug/ml relative to control; type: cell-based; details: at 64 µg/mL, read-out: Activity
# [2] = system: Staphylococcus aureus; experiment: Antibacterial activity against Staphylococcus aureus assessed as inhibition of bacterial growth; type: functional
MIC [2] [µg/mL],Structure (SMILES),viability at 64 ug/ml [1] [%]
4,O=C(O)CCNC(=O)c1c(Oc2ccccc2)c2cc(Cl)ccc2n1Cc1ccc(Cl)cc1,20
1,CC(C)(C)c1ccc(Cn2c(C(=O)O)c(Oc3ccc(I)cc3)c3cc(Cl)ccc32)cc1,10
1,O=C(O)c1c(Oc2cccc(I)c2)c2cc(Cl)ccc2n1Cc1ccc(Cl)cc1,10
8,Cc1ccc(Cn2c(C(=O)O)c(Oc3ccc(I)cc3)c3cc(Cl)ccc32)cc1,15
> 64,Clc1ccc(Cn2c(-c3nnn[nH]3)c(Oc3ccc(I)cc3)c3cc(Cl)ccc32)cc1,25
32,O=C(O)CCNC(=O)c1c(Oc2ccc(I)cc2)c2cc(Cl)ccc2n1Cc1ccc(Cl)cc1,15
8,O=C(O)c1c(Oc2cccc(I)c2)c2cc(Cl)ccc2n1Cc1ccc(Br)cc1,15

# The remaining lines, values behind:
Structure (SMILES),MIC [2] [µg/mL],viability at 64 ug/ml [1] [%]
O=C(O)c1c(Oc2ccc(I)cc2)c2cc(Cl)ccc2n1-c1ccc(Cl)cc1,16,20
Clc1ccc(Cn2c(-c3nnn[nH]3)c(Oc3ccccc3)c3cc(Cl)ccc32)cc1,8,20
O=C(O)c1c(Oc2ccc(I)cc2)c2cc(Cl)ccc2n1Cc1ccc(Br)cc1,2,15
O=C(O)c1c(Oc2ccc(I)cc2)c2cc(Cl)ccc2n1Cc1ccc(Cl)cc1,1,15
O=C(O)c1c(Oc2ccc(I)cc2)c2cc(Cl)ccc2n1Cc1ccc(Cl)c(Cl)c1,4,15
CN[C@H](CC(C)C)C(=O)N[C@H]1C(=O)N[C@@H](CC(N)=O)C(=O)N[C@H]2C(=O)N[C@H]3C(=O)N[C@H](C(=O)N[C@H](C(=O)O)c4cc(O)cc(O)c4-c4cc3ccc4O)[C@H](O)c3ccc(c(Cl)c3)Oc3cc2cc(c3O[C@@H]2O[C@H](CO)[C@@H](O)[C@H](O)[C@H]2O[C@H]2C[C@](C)(N)[C@H](O)[C@H](C)O2)Oc2ccc(cc2Cl)[C@H]1O [VANCOMYCIN],–,65
